Measurements: PubChem BioAssay AID1963842 (Molecular Pharmacology Branch, DTP, NCI, 2024)

System: 677734-321-R-J1-PDC complex spheroid viability
Assay: Anticancer human tumor 677734-321-R-J1-PDC patient-derived soft tissue sarcoma cell line growth inhibition [POLQ]
Conditions: for IC50: curve of first compound; for viability, T/C: stronger effect = lower value
Summary of the method: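 Three-cell-type spheroids modelling solid tumor plus stroma served as the readout system; POL inhibitors were tested individually and in combination, concentration ranges set by clinical Cmax where known.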

[1] = second compound 0.0316 µM, first compound 0.0316 µM
[2] = second compound 0.0316 µM, first compound 0.1 µM
[3] = second compound 0.1 µM, first compound 0.0316 µM
[4] = second compound 0.1 µM, first compound 0.1 µM
[5] = second compound 0.316 µM, first compound 0.0316 µM
[6] = second compound 0.316 µM, first compound 0.1 µM
[7] = second compound 1 µM, first compound 0.0316 µM
[8] = second compound 1 µM, first compound 0.1 µM
[9] = second compound 3.16 µM, first compound 0.0316 µM
[10] = second compound 3.16 µM, first compound 0.1 µM
[11] = second compound 10 µM, first compound 0.0316 µM
[12] = second compound 10 µM, first compound 0.1 µM
[13] = second compound 0.0316 µM, first compound 0.316 µM
[14] = second compound 0.0316 µM, first compound 1 µM
[15] = second compound 0.0316 µM, first compound 3.16 µM
[16] = second compound 0.0316 µM, first compound 10 µM
[17] = second compound 0.1 µM, first compound 0.316 µM
[18] = second compound 0.1 µM, first compound 1 µM
[19] = second compound 0.1 µM, first compound 3.16 µM
[20] = second compound 0.1 µM, first compound 10 µM
[21] = second compound 0.316 µM, first compound 0.316 µM
[22] = second compound 0.316 µM, first compound 1 µM
[23] = second compound 0.316 µM, first compound 3.16 µM
[24] = second compound 0.316 µM, first compound 10 µM
[25] = second compound 1 µM, first compound 0.316 µM
[26] = second compound 1 µM, first compound 1 µM
[27] = second compound 1 µM, first compound 3.16 µM
[28] = second compound 1 µM, first compound 10 µM
[29] = second compound 3.16 µM, first compound 0.316 µM
[30] = second compound 3.16 µM, first compound 1 µM
[31] = second compound 3.16 µM, first compound 3.16 µM
[32] = second compound 3.16 µM, first compound 10 µM
[33] = second compound 10 µM, first compound 0.316 µM
[34] = second compound 10 µM, first compound 1 µM
[35] = second compound 10 µM, first compound 3.16 µM
[36] = second compound 10 µM, first compound 10 µM
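Note: spheroids exposed to compounds for one week.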
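Throughout, for viability, T/C: 100% = vehicle DMSO treated spheroids.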

For `Cn1ncnc1[C@H]1c2n[nH]c(=O)c3cc(F)cc(c23)N[C@@H]1c1ccc(F)cc1` + COC1C(OC(N)=O)C(O)C(Oc2ccc3c(O)c(NC(=O)c4ccc(O)c(CC=C(C)C)c4)c(=O)oc3c2C)OC1(C)C, the IC50 (second compound 0.0316 µM) was over 100 nM, the IC50 (second compound 0.1 µM) was over 100 nM and the IC50 (second compound 0.316 µM) was over 100 nM. It also gave an IC50 (second compound 1 µM) of over 100 nM, an IC50 (second compound 3.16 µM) of over 100 nM and an IC50 (second compound 10 µM) of over 100 nM. For the same compound, the viability, T/C (second compound 0.0316 µM, first compound 0.000316 µM) was 101%, the viability, T/C (second compound 0.0316 µM, first compound 0.001 µM) was 103% and the viability, T/C (second compound 0.0316 µM, first compound 0.00316 µM) was 99.7%. It also gave a viability, T/C (second compound 0.0316 µM, first compound 0.01 µM) of 101%, a viability, T/C [1] of 98.8% and a viability, T/C [2] of 85.7%. For the same compound, the viability, T/C (second compound 0.1 µM, first compound 0.000316 µM) was 97.6%, the viability, T/C (second compound 0.1 µM, first compound 0.001 µM) was 101% and the viability, T/C (second compound 0.1 µM, first compound 0.00316 µM) was 106%. For the same compound, the viability, T/C (second compound 0.1 µM, first compound 0.01 µM) was 101%, the viability, T/C [3] was 98.5% and the viability, T/C [4] was 95.2%. For the same compound, the viability, T/C (second compound 0.316 µM, first compound 0.000316 µM) was 106%, the viability, T/C (second compound 0.316 µM, first compound 0.001 µM) was 97.8% and the viability, T/C (second compound 0.316 µM, first compound 0.00316 µM) was 98.5%. The viability, T/C (second compound 0.316 µM, first compound 0.01 µM) was 104%, the viability, T/C [5] was 97.6% and the viability, T/C [6] was 93.4%. For the same compound, the viability, T/C (second compound 1 µM, first compound 0.000316 µM) was 109%, the viability, T/C (second compound 1 µM, first compound 0.001 µM) was 102% and the viability, T/C (second compound 1 µM, first compound 0.00316 µM) was 103%. The viability, T/C (second compound 1 µM, first compound 0.01 µM) was 104%, the viability, T/C [7] was 96.3% and the viability, T/C [8] was 92.5%. The viability, T/C (second compound 3.16 µM, first compound 0.000316 µM) was 108%, the viability, T/C (second compound 3.16 µM, first compound 0.001 µM) was 94.7% and the viability, T/C (second compound 3.16 µM, first compound 0.00316 µM) was 103%. It also gave a viability, T/C (second compound 3.16 µM, first compound 0.01 µM) of 100%, a viability, T/C [9] of 106% and a viability, T/C [10] of 94.4%. It also gave a viability, T/C (second compound 10 µM, first compound 0.000316 µM) of 103%, a viability, T/C (second compound 10 µM, first compound 0.001 µM) of 100% and a viability, T/C (second compound 10 µM, first compound 0.00316 µM) of 106%. For the same compound, the viability, T/C (second compound 10 µM, first compound 0.01 µM) was 103%, the viability, T/C [11] was 99.4% and the viability, T/C [12] was 93.3%.

Work on `CC1COCCN1c1cc(-c2ccnn2C)c2ccnc(-c3ccn[nH]3)c2n1` (stereo not drawn) + Cc1cccc(N(C)C(=O)C2C(O)CCN2c2nc(C)cc(C(F)(F)F)c2C#N)c1 yielded an IC50 (second compound 0.0316 µM) of 161 nM, an IC50 (second compound 0.1 µM) of 175 nM and an IC50 (second compound 0.316 µM) of 153 nM. It also gave an IC50 (second compound 1 µM) of 156 nM, an IC50 (second compound 3.16 µM) of 125 nM and an IC50 (second compound 10 µM) of 110 nM. The viability, T/C [1] was 100%, the viability, T/C [2] was 67.6% and the viability, T/C [13] was 24.8%. For the same compound, the viability, T/C [14] was 21.6%, the viability, T/C [15] was 18.2% and the viability, T/C [16] was 14.3%. The viability, T/C [3] was 88.9%, the viability, T/C [4] was 70.9% and the viability, T/C [17] was 27.8%. The viability, T/C [18] was 17.1%, the viability, T/C [19] was 17.4% and the viability, T/C [20] was 16.6%. For the same compound, the viability, T/C [5] was 98.1%, the viability, T/C [6] was 64.9% and the viability, T/C [21] was 24.2%. The viability, T/C [22] was 19.6%, the viability, T/C [23] was 20.3% and the viability, T/C [24] was 16.3%. The viability, T/C [7] was 99.9%, the viability, T/C [8] was 65.5% and the viability, T/C [25] was 25.4%. The viability, T/C [26] was 18.7%, the viability, T/C [27] was 18.9% and the viability, T/C [28] was 15.8%. It also gave a viability, T/C [9] of 90.7%, a viability, T/C [10] of 56% and a viability, T/C [29] of 25.2%. It also gave a viability, T/C [30] of 19.1%, a viability, T/C [31] of 16.5% and a viability, T/C [32] of 18.6%. It also gave a viability, T/C [11] of 89.7%, a viability, T/C [12] of 52.5% and a viability, T/C [33] of 21.7%. The viability, T/C [34] was 17.2%, the viability, T/C [35] was 18.4% and the viability, T/C [36] was 16%.

Work on `CC1COCCN1c1cc(C2(O)CC3CCC(C2)O3)c2cnn(-c3ccn[nH]3)c2n1` (stereo not drawn) + COC1C(OC(N)=O)C(O)C(Oc2ccc3c(O)c(NC(=O)c4ccc(O)c(CC=C(C)C)c4)c(=O)oc3c2C)OC1(C)C yielded an IC50 (second compound 0.0316 µM) of 131 nM, an IC50 (second compound 0.1 µM) of 150 nM and an IC50 (second compound 0.316 µM) of 87.2 nM. It also gave an IC50 (second compound 1 µM) of 115 nM, an IC50 (second compound 3.16 µM) of 97 nM and an IC50 (second compound 10 µM) of 85.8 nM. The viability, T/C [1] was 87.1%, the viability, T/C [2] was 58.1% and the viability, T/C [13] was 24.2%. The viability, T/C [14] was 16.8%, the viability, T/C [15] was 17.9% and the viability, T/C [16] was 16.3%. It also gave a viability, T/C [3] of 92.9%, a viability, T/C [4] of 64.7% and a viability, T/C [17] of 22.7%. The viability, T/C [18] was 16.4%, the viability, T/C [19] was 13.5% and the viability, T/C [20] was 13.3%. It also gave a viability, T/C [5] of 80.2%, a viability, T/C [6] of 46.2% and a viability, T/C [21] of 22.6%. The viability, T/C [22] was 19.1%, the viability, T/C [23] was 14.7% and the viability, T/C [24] was 13.8%. It also gave a viability, T/C [7] of 92.5%, a viability, T/C [8] of 54.2% and a viability, T/C [25] of 18.6%. It also gave a viability, T/C [26] of 15.9%, a viability, T/C [27] of 17.1% and a viability, T/C [28] of 14.2%. It also gave a viability, T/C [9] of 85.3%, a viability, T/C [10] of 49% and a viability, T/C [29] of 25.4%. The viability, T/C [30] was 16.7%, the viability, T/C [31] was 15.2% and the viability, T/C [32] was 14.6%. It also gave a viability, T/C [11] of 89.6%, a viability, T/C [12] of 43.9% and a viability, T/C [33] of 21.3%. It also gave a viability, T/C [34] of 15.6%, a viability, T/C [35] of 16.1% and a viability, T/C [36] of 15.4%.

`CCc1cc2c(N3CCc4c(cc(Cn5ccnc5)cc4-c4cn(C)nc4C(F)(F)F)C3=O)ccnc2c(OC)n1` + Cc1cccc(N(C)C(=O)C2C(O)CCN2c2nc(C)cc(C(F)(F)F)c2C#N)c1 gave an IC50 (second compound 0.0316 µM) of over 10000 nM, an IC50 (second compound 0.1 µM) of 9080 nM and an IC50 (second compound 0.316 µM) of 5190 nM. It also gave an IC50 (second compound 1 µM) of 7180 nM, an IC50 (second compound 3.16 µM) of 4890 nM and an IC50 (second compound 10 µM) of 1980 nM. The viability, T/C [1] was 104%, the viability, T/C [2] was 94.4% and the viability, T/C [13] was 86.5%. For the same compound, the viability, T/C [14] was 96.9%, the viability, T/C [15] was 60.5% and the viability, T/C [16] was 58.8%. For the same compound, the viability, T/C [3] was 113%, the viability, T/C [4] was 104% and the viability, T/C [17] was 99.4%. It also gave a viability, T/C [18] of 84%, a viability, T/C [19] of 59.7% and a viability, T/C [20] of 49.7%. The viability, T/C [5] was 100%, the viability, T/C [6] was 110% and the viability, T/C [21] was 92.3%. For the same compound, the viability, T/C [22] was 85.8%, the viability, T/C [23] was 59.8% and the viability, T/C [24] was 36.5%. It also gave a viability, T/C [7] of 94.7%, a viability, T/C [8] of 79% and a viability, T/C [25] of 100%. It also gave a viability, T/C [26] of 77.8%, a viability, T/C [27] of 75.1% and a viability, T/C [28] of 40.2%. The viability, T/C [9] was 110%, the viability, T/C [10] was 79.9% and the viability, T/C [29] was 93.2%. It also gave a viability, T/C [30] of 76.1%, a viability, T/C [31] of 64.6% and a viability, T/C [32] of 31.6%. It also gave a viability, T/C [11] of 87.9%, a viability, T/C [12] of 67.9% and a viability, T/C [33] of 60.5%. For the same compound, the viability, T/C [34] was 65.8%, the viability, T/C [35] was 46.3% and the viability, T/C [36] was 30.5%.
